Results reported in patent US8710071B2, “Compounds, compositions and methods for reducing lipid levels” (CVI Pharmaceuticals Limited, priority 2008, dated 2014).
“Also recorded” adds a separate entry of the source.

Key:
[1] = test system: Wister male rats under a high fat and high cholesterol diet; assay: Lipid lowering effects of (14R,13S)-CRDL hydrochloride salt in Wister rats; assay type: in vivo, rat; details: 75 mg/kg daily orally
Protocol: Male Wister rats were used as an animal model to examine the in vivo effects of (14R,13S)—CRDL in plasma lipid levels.
In one experiment, 18 Wister male rats under a high fat and high cholesterol diet were divided into 2 groups. One group was given (14R,13S)—CRDL hydrochloride salt orally at a daily dose of 75 mg/kg by an orogastric tube for 4 weeks, and the control group received daily treatment of equal amount of vehicle (0.1 M sodium phosphate, pH 3.5). Serum lipid levels were measured weekly.
At the end of treatment, Rats were sacrificed and blood and sera were collected to measure several critical parameters for liver function and kidney function. […] Kidney function and blood glucose level were not changed by the treatment.

[2] = test system: LDLR mRNA; assay: LDLR mRNA expression in HepG2 cells, semi-quantitative RT-PCR; assay type: cell-based, human; details: indicated doses, 8 hours, semi-quantitative RT-PCR (FIG. 3)
Protocol: HepG2 cells obtained from American Tissue Culture Collection (Manassas, Va., USA) were seeded in 6-well culture plates at a density of 0.8×10^6 cells/well cultured in EMEM containing 0.5% FBS and were treated with each purified compound at indicated doses for 8 hours. Total RNA was isolated, and 2 μg per sample was reverse transcribed with random primers using M-MLV (Promega) at 37° C. for 1 hour. PCR was carried out at 94° C. for 30 sec, 60° C. for 30 sec, and 72° C. for 30 sec with initial activation of the enzyme at 94° C. for 1 minute. Thirty cycles were performed for LDLR and GAPDH. PCR was performed using primers HLDLR-up and HLDLR-lo for LDLR and primers HGAPDH-up and HGAPDH-lo for GAPDH. The PCR products were separated on a 1% agarose gel and the band intensity was quantitated. LDLR mRNA levels were corrected by measuring GAPDH mRNA levels.
Specific stereochemical requirements of +1-THP in the upregulation of LDLR mRNA expression were determined by a similar experiment. HepG2 cells were treated with the pure 14R-(+)-THP or the pure 14S-(−)-THP at the indicated concentrations for 24 hours. The levels of LDLR mRNA and GAPDH mRNA in untreated and the compound-treated HepG2 cells were assessed by semi-quantitative RT-PCR.

[3] = test system: HepG2 cells; assay: DiI-LDL uptake (LDLR ligand uptake activity) in HepG2 cells; assay type: cell-based, human; details: for Activity on DiI-LDL uptake: 20 hours; for Activity in LDL uptake at 40 uM (relative to control): 20 hours (second symbol of the cell); for Activity in LDL uptake at 10 uM (relative to control): 20 hours (first symbol of the cell)
Protocol: HepG2 cells (2×10^5 cells/well) in 24-well culture plates were treated with various compounds at indicated concentrations for 20 hours. The fluorescent 1.1′-dioctadecyl-3,3,3′,3′-tetramethylindocarbocyanin perchlorate (DiI-LDL) (Biomedical Technologies, Stoughton, Mass.) at a concentration of 2 μg/mL was added to cells at the end of treatment. After 4 hours, the medium was removed, cells were washed with cold PBS, and were examined immediately under a fluorescent microscope (Nikon) at 200× amplification. The fluorescent intensity in compound-treated cells was compared to that in untreated control cells. […] In these experiments berberine chloride was used for comparison.
The combined beneficial effects of these novel compounds on elevation of LDLR mRNA levels likely through the mechanism of mRNA stabilization and their inhibitory activity towards PCSK9, the secreted protease that degrades LDLR protein, result in strong increases in LDL ligand uptake activity through increased receptor surface abundance. […] Briefly, HepG2 cells (2×10^5 cells/well) in 24-well culture plates were treated with various compounds at 10 and 40 uM concentrations for 20 hours. The fluorescent 1.1′-dioctadecyl-3,3,3′,3′-tetramethylindocarbocyanin perchlorate (DiI-LDL) (Biomedical Technologies, Stoughton, Mass.) at a concentration of 2 μg/ml was added to cells at the end of treatment. After 4 hours, the medium was removed; cells were washed with cold PBS, and were examined immediately under a fluorescent microscope (Nikon) at 200× amplification. The fluorescent intensity in compound-treated cells was compared to that in untreated control cells. […]

[4] = test system: ERK; assay: ERK activation in HepG2 cells, Western blot with anti-phosphorylated ERK; assay type: cell-based, human; details: 20 μg/mL, 0.5, 2, or 8 hours (FIG. 5)
Protocol: HepG2 cells cultured in 60-mm dishes were treated with various compounds at a concentration of 15 μg/ml for 2 hours. Total cell lysate was isolated and 50 μg of protein was separated on SDS-PAGE and transferred to nitrocellulose membrane.
HepG2 cells were treated with 20 μg/mL 14R,13S-(+)-CRDL and 14R-(+)-THP respectively for 0.5, 2, or 8 hours. Cells were then lysed. After protein quantitation using the BCA™ protein assay reagent (PIERCE), 50 μg protein from each sample was subjected to SDS-PAGE, followed by Western blotting using anti-phosphorylated ERK (Cell Signaling) and subsequently reprobed with antibody against β-actin.

[5] = test system: LDLR mRNA; assay: LDLR mRNA expression in HepG2 cells, quantitative real-time RT-PCR; assay type: cell-based, human; details: Homo sapiens, 24 hours, mean ± s.d.; for fold induction at 10 µM: read-out: Activity on LDLR mRNA at 10 uM (fold of control); for fold induction at 40 µM: read-out: Activity on LDLR mRNA at 40 uM (fold of control)
Protocol: Activities of some compounds of Formulas I, II, III, and IV on LDLR mRNA expression were determined. HepG2 cells were treated with new compounds individually at a dose less than or equal to 10 μM for 24 hours. Total RNA was harvested for quantitative real-time RT-PCR analysis using the method described in Example 16B. […] In these experiments, berberine chloride was included for comparison.
The time-dependent effects of compounds of Formula I, II, III, and IV on the upregulation of LDLR mRNA and the inhibition of PCSK9 mRNA expression were examined (Horton J D, Cohen J C, Hobbs H I T. “Molecular biology of PCSK9: its role in LDL metabolism” TRENDS in Biochemical Sciences 2007; 32:71-77). HepG2 cells were treated with new compounds individually at 20 uM dose for 1 day, 2 day, and 3 days. Total RNA was isolated and 2 μg was used to generate cDNA in a reaction containing random primers and M-MLV at 37° C. for 1 hour in a volume of 25 μl. Real-time PCR was performed on the cDNA using MCEP REALPLEX 2 SYSTEM (Eppendorf) and Universal MasterMix (Applied Biosystems). Human LDLR, PCSK9, and GAPDH Pre-Developed TaqMan Assay Reagents (Applied Biosystems) were used to assess the levels of mRNA expressions in HepG2. The levels of LDLR mRNA or PCSK9 mRNA were normalized to that of GAPDH. Each RNA samples was assayed in triplicate. The abundance of LDLR mRNA or PCSK9 mRNA in untreated cells was defined as 1, and the amounts of LDLR mRNA or PCSK9 from compound-treated cells were plotted relative to that value (FIG. 10). The data shown are mean±s.d.
Total RNA was harvested for quantitative real-time RT-PCR analysis using method described in Examples 16B.
The effects of 23 compounds on the mRNA expressions of LDLR and PCSK9 were examined using quantitative real-time RT-PCR assays. HepG2 cells were treated with various compounds at 10 and 40 uM concentrations for 24 hours. Total RNA was isolated and […] was used to generate cDNA in a reaction containing random primers and M-MLV at 37° C. for 1 h in a volume of 25 μl. Real-time PCR was performed on the cDNA using MCEP REALPLEX 2 SYSTEM (Eppendorf) and Universal MasterMix (Applied Biosystems). Human LDLR, PCSK9, and GAPDH Pre-Developed TaqMan Assay Reagents (Applied Biosystems) were used to assess the levels of mRNA expressions in HepG2. The levels of LDLR and PCSK9 mRNA were normalized to that of GAPDH. Each RNA samples was assayed in duplicate. The fold activity was calculated by dividing mRNA abundance in compound treated cells with that of control.

[6] = test system: acetyl coenzyme A carboxylase (ACC); assay: ACC phosphorylation in HepG2 cells, Western blot; assay type: cell-based, human; details: 20 μg/ml, 0.5, 2, or 8 hours (FIG. 6)
Protocol: HepG2 cells were treated with 20 μg/ml14R-(+)-THP for 0.5, 2, or 8 hours. Cells were lysed, and 50 μg protein from each sample was subjected to SDS-PAGE, followed by Western blotting using anti-phosphorylated ACC (Cell Signaling) and subsequently reprobed with antibody against β-actin.
Cells were harvested after 1, 2, and 3 days treatment and western blot analysis was conducted using antibodies directed to LDLR and PCSK9. Chicken anti-LDLR was purchased from Abeam, the mouse anti-PCSK9 was purchased from Cayman Chemicals, and anti-pACC was purchased from Cell Signaling.

[7] = test system: hyperlipidemic rabbits; assay: Lipid lowering effects and blood chemistry in hyperlipidemic rabbits; details: day 14, doses increased after day 7 to 60 mg/kg (128(+)/128(−)) and 10 mg/kg (SMV/ATV), mean ± SD
Protocol: Forty-two male Japanese rabbits were fed the cholesterol enriched rabbit diet for two weeks to induce hypercholesterolemia. […] Serum samples were collected at day 0 (before the drug treatment) and day 7. […] All tested animals were sacrified at the end of a total of 14 days treatment and serum samples were analyzed for TC, LDL-C, TG, and HDL-C. In addition to lipid profiles, a number of biochemical parameters were also analyzed to aseesee the effects of drug treatments on liver function, muscle function, kidney function, and heart function.

SMILES: COc1cc2c(cc1OC)[C@H]1[C@@H](C)c3ccc(OC)c(OC)c3CN1CC2 [CRDL, corydaline]
- serum levels of AST and ALT (liver function) ([1]; end of 4-week treatment, versus control group, 75 mg/kg): liver function was not damaged; also recorded: statistically lower
- adverse effects ([1]; entire 4-week treatment): No any adverse effects were observed

SMILES: COc1cc2c(cc1OC)[C@H]1[C@@H](C)c3ccc(OC)c(OC)c3CN1CC2 [14R,13S-(+)-CRDL, 14R,13S-(+)-corydaline]
- LDLR mRNA expression [2]: potent and dose-dependent effects
- Activity on DiI-LDL uptake ([3]; B: compound dose ≦ 40 μM): ++
- activation of ERK [4]: activation of ERK

SMILES: COc1ccc2c(c1)CCN1Cc3c(ccc(OC)c3OS(=O)(=O)c3ccccc3)CC21 (stereo not drawn) [Compound 115, 3,10-Dimethoxy-5,6,7,8,13,13a-hexahydroisoquinolino[2,1-b]isoquinolin-9-yl benzenesulfonate]
- Activity in LDL uptake at 40 uM (relative to control) [3]: +++
- fold induction at 10 µM [5]: 0.51 ± 0.11
- fold induction at 40 µM [5]: 2.65 ± 0.06

SMILES: COc1cc2c(cc1O)CCN1Cc3c(ccc(OC)c3OC)CC21 (stereo not drawn) [14R-(+)-CRPM, 14R-(+)-corypalmine]
- LDLR mRNA expression [2]: potent and dose-dependent effects
- Activity on DiI-LDL uptake ([3]; A: compound dose ≦ 10 μM): ++

SMILES: COc1cc2c(cc1OC)[C@H]1Cc3ccc(OC)c(OC)c3CN1CC2 [14R-(+)-THP, 14R-(+)-tetrahydropalmatine]
- LDLR mRNA expression [2]: potent and dose-dependent effects
- Activity on DiI-LDL uptake ([3]; B: compound dose ≦ 40 μM): ++
- activation of ERK [4]: activation of ERK
- ACC phosphorylation [6]: induction of ACC phosphorylation

SMILES: CCC(C)(C)C(=O)O[C@H]1C[C@@H](C)C=C2C=C[C@H](C)[C@H](CC[C@@H]3C[C@@H](O)CC(=O)O3)[C@H]21 [SMV, simvastatin, reference compound]
- serum total cholesterol levels, treatment day 14 [7]: 26.2 ± 5.5

SMILES: CC(C)c1c(C(=O)Nc2ccccc2)c(-c2ccccc2)c(-c2ccc(F)cc2)n1CC[C@@H](O)C[C@@H](O)CC(=O)O [ATV, atorvastatin, reference compound]
- serum total cholesterol levels, treatment day 14 [7]: 33.9 ± 6.5

SMILES: COc1cc2c(cc1C(=O)NCCO)C1Cc3ccc(OC)c(OS(=O)(=O)c4ccccc4)c3CN1CC2 (stereo not drawn) [Compound 137, 2-[N-(2-hydroxyethyl)carbamoyl]-3,10-dimethoxy-5,6,7,8,13,13a-hexahydroisoquinolino[2,1-b]isoquinolin-9-yl benzenesulfonate]
- Activity in LDL uptake at 10 uM (relative to control) [3]: +
- Activity in LDL uptake at 40 uM (relative to control) [3]: +++

SMILES: COc1ccc2c(c1OS(=O)(=O)c1ccccc1)CN1CCc3cc4c(cc3C1C2)OCCO4 (stereo not drawn) [Compound 116, 11-Methoxy-6,7,8,9,14,14a-hexahydro-2H,3H-1,4-dioxano[5,6-g]isoquinoluio[3,2-a]isoquinolin-10-yl benzenesulfonate]
- fold induction at 10 µM [5]: 1.41 ± 0.04
- fold induction at 40 µM [5]: 7.19 ± 1.29

SMILES: COc1cc2c(cc1OCCO)CCN1Cc3c(ccc(OC)c3OS(=O)(=O)c3ccccc3)CC21 (stereo not drawn) [Compound 138, 3-(2-Hydroxyethoxy)-2,10-dimethoxy-5,6,7,8,13,13a-hexahydroisoquinolino[2,1-b]isoquinolin-9-yl benzenesulfonate]
- Activity in LDL uptake at 10 uM (relative to control) [3]: +
- Activity in LDL uptake at 40 uM (relative to control) [3]: +++

SMILES: COc1ccc2c(c1OS(=O)(=O)c1ccccc1)CN1CCc3cc(C)ccc3C1C2 (stereo not drawn) [Compound 121, 10-Methoxy-3-methyl-5,6,7,8,13,13a-hexahydroisoquinolino[2,1-b]isoquinofin-9-yl benzenesulfonate]
- Activity in LDL uptake at 10 uM (relative to control) [3]: +++
- Activity in LDL uptake at 40 uM (relative to control) [3]: +
